These compounds were tested against T1, Recombinant HDAC9 isoform 4 (Homo sapiens, UniProt Q9UKV0) (assay: Histone Deacetylase 9 (HDAC9) inhibition assay, fluorogenic substrate). Settings: mean of a minimum of 2 experiments; 11 point 3x dilution series from 100 uM; 45 minutes incubation at room temperature; read-out: mean pIC50 of HDAC9 inhibition (converted).
T1 construct: purchased BPS Bioscience
T1 sequence (Q9UKV0 1-1066 isoform Q9UKV0-5): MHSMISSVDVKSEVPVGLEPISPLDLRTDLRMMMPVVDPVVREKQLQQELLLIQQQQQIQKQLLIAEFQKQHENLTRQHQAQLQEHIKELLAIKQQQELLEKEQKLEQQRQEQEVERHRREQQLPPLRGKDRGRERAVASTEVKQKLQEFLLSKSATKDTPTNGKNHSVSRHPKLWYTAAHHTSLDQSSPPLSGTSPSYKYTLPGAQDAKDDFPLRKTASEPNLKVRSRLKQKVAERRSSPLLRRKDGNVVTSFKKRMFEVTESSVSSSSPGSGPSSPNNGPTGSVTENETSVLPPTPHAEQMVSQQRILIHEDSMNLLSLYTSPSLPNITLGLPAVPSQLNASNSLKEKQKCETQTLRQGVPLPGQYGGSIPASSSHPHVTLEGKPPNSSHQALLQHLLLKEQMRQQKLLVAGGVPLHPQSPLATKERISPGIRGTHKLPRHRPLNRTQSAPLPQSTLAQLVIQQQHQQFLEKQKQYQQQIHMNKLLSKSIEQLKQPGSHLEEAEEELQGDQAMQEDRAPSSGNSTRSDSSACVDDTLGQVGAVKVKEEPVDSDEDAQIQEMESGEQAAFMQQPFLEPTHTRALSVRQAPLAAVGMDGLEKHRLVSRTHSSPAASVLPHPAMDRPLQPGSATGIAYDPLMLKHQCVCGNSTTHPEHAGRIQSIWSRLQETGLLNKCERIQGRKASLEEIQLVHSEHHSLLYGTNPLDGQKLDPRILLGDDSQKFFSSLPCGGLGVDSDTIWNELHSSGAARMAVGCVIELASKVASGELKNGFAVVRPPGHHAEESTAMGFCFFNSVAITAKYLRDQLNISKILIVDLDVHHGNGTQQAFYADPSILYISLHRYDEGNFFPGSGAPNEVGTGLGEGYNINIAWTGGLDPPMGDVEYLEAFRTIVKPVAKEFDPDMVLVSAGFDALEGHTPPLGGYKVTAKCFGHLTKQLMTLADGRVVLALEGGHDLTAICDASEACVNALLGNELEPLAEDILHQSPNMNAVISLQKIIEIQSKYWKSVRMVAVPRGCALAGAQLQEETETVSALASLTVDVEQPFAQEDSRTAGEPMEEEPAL
Type: biochemical
Excerpt: Histone Deacetylase 9 (HDAC9) Inhibition Assay:
Novel histone deacetylase 9 (HDAC9) inhibitors were characterized in an in vitro biochemical functional assay. The assay measures the increased fluorescent signal due to deacetylation, by HDAC9, of a fluorogenic substrate. The commercial available substrate is Class IIa HDAC-specific and contains an acetylated lysine residue and would releases the fluorescent signal upon trypsin cleavage after deacetylation.
Specifically, test compounds diluted to various concentrations in 100% DMSO are first dispensed into 384-well assay plates. Recombinant HDAC9 isoform 4 (purchased from BPS Bioscience) in complete assay buffer (50 mM Tris-HCl, pH 8.0, 137 mM NaCl, 2.7 mM KCl, 1 mM MgCl2, 0.05% BSA & 0.005% Tween 20) were then added to each well (5 uL/well) using Multidrop Combi (Thermo Scientific), followed by 5 uL/well substrate (purchased from BPS Bioscience, 4.5 uM final). After 45 minutes incubation at room temperature, 10 uL 2× developer solution (assay buffer with 40 uM Trypsin and 20 uM Trichostatin A) was added. The plates were then incubated 1 hour at room temperature before reading in fluorescent intensity mode at 450 nm in an Envision (Perkin Elmer) plate reader. Percent Inhibition of HDAC9 activity by compounds in each test wells was calculated by normalizing to fluorescent signal in control wells containing DMSO only.
For dose response experiments, normalized data were fit by ABASE/XC50 using the equation y=a+(b−a)/(1+(10̂×/10̂c)̂d), where a is the minimum % activity, b is the maximum % activity, c is the pIC50, d is the Hill slope.
Work on `CN(C)CCC(CNC(=O)CCCc1ccc(C(=O)C(F)(F)F)s1)c1coc(-c2ccc(F)cc2)n1` (stereo not shown) [Example 18, N-(4-(Dimethylamino)-2-(2-(4-fluorophenyl)oxazol-4-yl)butyl)-4-(5-(2,2,2-trifluoroacetyl)thiophen-2-yl)butanamide] yielded an IC50 of under 1000 nM.
Work on `CN1CCC(CNC(=O)CCCc2noc(C(F)(F)F)n2)(c2coc(-c3ccc(F)cc3)n2)CC1` [Example 5, N-((4-(2-(4-Fluorophenyl)oxazol-4-yl)-1-methylpiperidin-4-yl)methyl)-4-(5-(trifluoromethyl)-1,2,4-oxadiazol-3-yl)butanamide] yielded an IC50 of under 1000 nM.
`CC(C)(CNC(=O)CCCc1noc(C(F)(F)F)n1)c1coc(-c2ccc(F)cc2)n1` [Example 3, N-(2-(2-(4-Fluorophenyl)oxazol-4-yl)-2-methylpropyl)-4-(5-(trifluoromethyl)-1,2,4-oxadiazol-3-yl)butanamide] was tested, and the IC50 was under 1000 nM.
`CN(C)CCC(CNC(=O)CCCc1noc(C(F)(F)F)n1)c1coc(-c2ccc(F)cc2)n1` (stereo not shown) [Example 4, N-(4-(Dimethylamino)-2-(2-(4-fluorophenyl)oxazol-4-yl)butyl)-4-(5-(trifluoromethyl)-1,2,4-oxadiazol-3-yl)butanamide] was tested, and the IC50 was under 1000 nM.
